# Measurements taken from patent US8394954B2, “Benzophenone hybrids as anticancer agents and processes for the preparation thereof” (Council of Scientific & Industrial Research, priority 2007, dated 2013).
# Experiments:
# [1] = tested on: sixty human tumor cells derived from nine cancer types; experiment: NCI in vitro anticancer screen, 48 h exposure, SRB assay, mean over all lines; type: cell-based; conditions: for GI50: Homo sapiens, wide spectrum of activity against sixty cell lines in nine cell panels; for Log10LC50 mean graph midpoint (MG_MID) / Log10GI50 mean graph midpoint (MG_MID) / Log10TGI mean graph midpoint (MG_MID): human tumor cell lines, 48 h exposure; for Log10LC50 mean graph midpoint (MG_MID): 50% cell death; for Log10GI50 mean graph midpoint (MG_MID): 50% cell growth inhibition; for Log10TGI mean graph midpoint (MG_MID): total cell growth inhibition
# Procedure: (§1) Compounds described herein were evaluated for in vitro anticancer activity. Particularly the 6a, 6b, 6d, 6h, 8a and 8b compounds were evaluated for in vitro anticancer activity against sixty human tumor cells derived from nine cancer types (leukemia, non-small-cell lung, colon, […], ovarian, prostate, and breast cancer) as shown in (Table 2 and 3). For the compound, dose response curves for each cell line were measured at a minimum of five concentrations at 10 fold dilutions. A protocol of 48 h continuous drug exposure was used and a sulforhodamine B (SRB) protein assay was used to estimate cell viability or growth. The concentration causing 50% cell growth inhibition (GI50), total cell growth inhibition (TGI 0% growth) and 50% cell death (LC50, −50% growth) compared with the control was calculated.
# [2] = tested on: Leukemia cancer cell lines; experiment: NCI in vitro anticancer screen, leukemia panel; type: cell-based, human; conditions: average of six to nine cell lines; for GI50: Homo sapiens, read-out: Log GI50 (concentration in mol/L causing 50% growth inhibition) (converted)
# Procedure: as §1
# CNS cancer cell lines = experiment: NCI in vitro anticancer screen, CNS panel; type: cell-based, human; conditions: average of six to nine cell lines; for GI50: Homo sapiens, read-out: Log GI50 (concentration in mol/L causing 50% growth inhibition) (converted)
# Procedure: as §1
# Renal cancer cell lines = experiment: NCI in vitro anticancer screen, renal panel; type: cell-based, human; conditions: average of six to nine cell lines; for GI50: Homo sapiens, read-out: Log GI50 (concentration in mol/L causing 50% growth inhibition) (converted)
# Procedure: as §1
# [3] = tested on: Ovarian cancer cell lines; experiment: NCI in vitro anticancer screen, ovarian panel; type: cell-based, human; conditions: average of six to nine cell lines; for GI50: Homo sapiens, read-out: Log GI50 (concentration in mol/L causing 50% growth inhibition) (converted)
# Procedure: as §1
# [4] = tested on: duplex-form calf thymus DNA (CT-DNA); experiment: Thermal denaturation studies with CT-DNA; type: binding; conditions: [BPD]:[DNA] molar ratio 1:5, CT-DNA 100 μM, ligand 20 μM, pH 7.00
# Procedure: Compounds were subjected to thermal denaturation studies with duplex-form calf thymus DNA (CT-DNA). Working solutions in aqueous buffer (10 mM NaH2PO4/Na2HPO4, 1 mM Na2EDTA, pH 7.00+0.01) containing CT-DNA (100 μm in phosphate) and the BPD (20 μm) were prepared by addition of concentrated BPD solutions in DMSO to obtain a fixed [BPD]/[DNA] molar ratio of 1:5. The DNA-BPD solutions were incubated at 37° C. for 0, 18, and 36 h prior to analysis. Samples were monitored at 260 nm using a Beckman DU-7400 spectrophotometer fitted with high performance temperature controller, and heating was applied at 1° C. min-1 in the 40-90° C. range. DNA helix coil transition temperatures (Tm) were obtained from the maxima in the (dA260)/dT derivative plots. Results are given as the mean±standard deviation from three determinations and are corrected for the effects of DMSO co-solvent using a linear correction term. Drug-induced alterations in DNA melting behavior are given by: ΔTm=Tm(DNA+BPD)−Tm(DNA alone), where the Tm value for the BPD-free CT-DNA is 69.0±0.01.
# [5] = tested on: human cancer cell lines of colon (Colo205), lung (Hop-62), cervix (SiHa), prostate (DU145, PC3), oral (DWD, HT1080), and breast (MCF7, Zr-75-1) origin; experiment: In vitro evaluation of cytotoxic activity in selected human cancer cell lines, 48 h exposure; type: cell-based; conditions: 48 h continuous drug exposure
# Procedure: In vitro evaluation of cytotoxic activity. Compounds 6a, 6b, 6d, 6e, 8a and 8b were evaluated for in vitro anticancer activity against nine human tumor cells derived from six cancer types (colon, prostate, oral, lung, cervix and breast cancer) as shown in Table 2. […] Compounds 6a, 6b, 6d, 6e, 8a and 8b have been evaluated for their in vitro cytotoxicity in selected human cancer cell lines of colon (Colo205), lung (Hop-62), cervix (SiHa), prostate (DU145, PC3), oral (DWD, HT1080), and breast (MCF7, Zr-75-1) origin. A protocol of 48 h continuous drug exposure has been used and an […] has been used to estimate cell viability or growth. The results are expressed as percent of cell growth determined relative to that of untreated control cells
# [6] = tested on: Melanoma cancer cell lines; experiment: NCI in vitro anticancer screen, melanoma panel; type: cell-based, human; conditions: average of six to nine cell lines; for GI50: Homo sapiens, read-out: Log GI50 (concentration in mol/L causing 50% growth inhibition) (converted)
# Procedure: as §1
# [7] = tested on: Nonsmall-cell-lung cancer cell lines; experiment: NCI in vitro anticancer screen, non-small-cell lung panel; type: cell-based, human; conditions: average of six to nine cell lines; for GI50: Homo sapiens, read-out: Log GI50 (concentration in mol/L causing 50% growth inhibition) (converted)
# Procedure: as §1
# Colon cancer cell lines = experiment: NCI in vitro anticancer screen, colon panel; type: cell-based, human; conditions: average of six to nine cell lines; for GI50: Homo sapiens, read-out: Log GI50 (concentration in mol/L causing 50% growth inhibition) (converted)
# Procedure: as §1
# Breast cancer cell lines = experiment: NCI in vitro anticancer screen, breast panel; type: cell-based, human; conditions: average of six to nine cell lines; for GI50: Homo sapiens, read-out: Log GI50 (concentration in mol/L causing 50% growth inhibition) (converted)
# Procedure: as §1
# [8] = tested on: Prostate cancer cell lines; experiment: NCI in vitro anticancer screen, prostate panel; type: cell-based, human; conditions: average of six to nine cell lines; for GI50: Homo sapiens, read-out: Log GI50 (concentration in mol/L causing 50% growth inhibition) (converted)
# Procedure: as §1
SMILES,Log10LC50 mean graph midpoint (MG_MID) [1],Log10GI50 mean graph midpoint (MG_MID) [1],Log10TGI mean graph midpoint (MG_MID) [1],GI50 [2],GI50 (CNS cancer cell lines),GI50 (Renal cancer cell lines),GI50 [3],ΔTm after incubation at 37° C. for 0 h [4],ΔTm after incubation at 37° C. for 18 h [4],ΔTm after incubation at 37° C. for 36 h [4],cytotoxicity against some cancer cell lines [5],GI50 [6],GI50 [7],GI50 (Colon cancer cell lines),GI50 (Breast cancer cell lines),GI50 [8],also measured
"O=C(CN1CCN(c2ccccn2)CC1)Nc1ccc(Cl)cc1C(=O)c1ccccc1Cl [Compound 6a, N1-[4-chloro-2-(2-chlorobenzoyl)phenyl]-2-[4-(2-pyridyl)piperazino]acetamide]",−4.35,−6.51,−6.54,3.55 µM,5.62 µM,1.55 µM,6.76 µM,1.2 °C,1.7 °C,2.2 °C,promising cytotoxicity,1.29 µM,2.51 µM,5.75 µM,3.89 µM,1.78 µM,GI50 [1]: < 20 µM
"O=C(CN1CCN(c2ncccn2)CC1)Nc1ccc(Cl)cc1C(=O)c1ccccc1Cl [Compound 6b, N1-[4-chloro-2-(2-chlorobenzoyl)phenyl]-2-[4-(2-pyrimidinyl)piperazino]acetamide]",−5.73,−6.57,−6.89,5.5 µM,5.89 µM,5.62 µM,5.75 µM,1.5 °C,2.1 °C,2.6 °C,,1.78 µM,3.63 µM,2.14 µM,6.76 µM,16.6 µM,
"COc1ccccc1N1CCN(CC(=O)Nc2ccc(Cl)cc2C(=O)c2ccccc2Cl)CC1 [Compound 6c, N1-[4-chloro-2-(2-chlorobenzoyl)phenyl]-2-[4-(2-methoxyphenyl)piperazino]acetamide]",,,,,,,,1.4 °C,1.6 °C,2.3 °C,promising cytotoxicity,,,,,,
CC(C)(C)c1cn2cccc(C(=O)N3CCN(CC(=O)Nc4ccc(Cl)cc4C(=O)c4ccccc4Cl)CC3)c2n1 [Compound 6e],−5.39,−5.93,−6.28,0.851 µM,1.41 µM,1.05 µM,3.55 µM,1.9 °C,2.3 °C,2.8 °C,promising cytotoxicity,3.47 µM,0.661 µM,0.589 µM,2.14 µM,1.35 µM,
"O=C(CN1CCN(CC(=O)Nc2ccc(Cl)cc2C(=O)c2ccccc2Cl)CC1)Nc1ccc(Cl)cc1C(=O)c1ccccc1Cl [Compound 6f, N1-[4-chloro-2-(2-chlorobenzoyl)phenyl]-2-(4-2-[4-chloro-2-(2-chlorobenzoyl)anilino]-2-oxoethylpiperazino)acetamide]",,,,,,,,1.3 °C,2.1 °C,3.0 °C,,,,,,,
O=C(CN1CCN(CCCN2CCN(CC(=O)Nc3ccc(Cl)cc3C(=O)c3ccccc3Cl)CC2)CC1)Nc1ccc(Cl)cc1C(=O)c1ccccc1Cl [Compound 6g],,,,,,,,1.6 °C,2.6 °C,2.9 °C,,,,,,,
COc1cc(/C=C/C(=O)c2ccc(F)cc2)ccc1OCCCN1CCN(CC(=O)Nc2ccc(Cl)cc2C(=O)c2ccccc2Cl)CC1 [Compound 8],,,,,,,,1.5 °C,2.3 °C,2.4 °C,,,,,,,
O=C(CN1CCN(CCCOc2oc3ccccc3c(=O)c2-c2ccccc2)CC1)Nc1ccc(Cl)cc1C(=O)c1ccccc1Cl [Compound 8a],−5.32,−6.19,−6.33,,,,,1.4 °C,2.1 °C,2.1 °C,promising cytotoxicity,,,,,,Log GI50 (concentration in mol/L causing 50% growth inhibition) [2]: −6.11 mol/L; Log GI50 (concentration in mol/L causing 50% growth inhibition) (CNS cancer cell lines): −5.69 mol/L; Log GI50 (concentration in mol/L causing 50% growth inhibition) (Renal cancer cell lines): −5.71 mol/L; Log GI50 (concentration in mol/L causing 50% growth inhibition) [3]: −5.80 mol/L; Log GI50 (concentration in mol/L causing 50% growth inhibition) [6]: −5.79 mol/L; Log GI50 (concentration in mol/L causing 50% growth inhibition) [7]: −5.75 mol/L; Log GI50 (concentration in mol/L causing 50% growth inhibition) (Colon cancer cell lines): −5.75 mol/L; Log GI50 (concentration in mol/L causing 50% growth inhibition) (Breast cancer cell lines): −5.70 mol/L; Log GI50 (concentration in mol/L causing 50% growth inhibition) [8]: −5.56 mol/L
O=C(c1ccccc1)c1cc(Cl)ccc1OCCCCN1CCN(CCCCOc2ccc(Cl)cc2C(=O)c2ccccc2)CC1 [Compound 8b],−5.25,−6.35,−5.51,0.631 µM,4.17 µM,2.57 µM,5.75 µM,1.6 °C,2.6 °C,2.9 °C,,,3.24 µM,,3.47 µM,3.16 µM,GI50 [1]: < 20 µM
"COc1cc2c(cc1O)N=CC1CCCN1C2=O (stereo not drawn) [DC-81, reference compound]",,,,,,,,0.3 °C,0.7 °C,,,,,,,,
